The test system of data set [1] is rats with gout induced by intra-articular uric acid. The data set can be described thus: Pain-induced functional impairment model in the rat (PIFIR model), antinociceptive effects. It counts as in vivo, male Wistar rats. As for the experimental part:
The following compounds were employed: uric acid, celecoxib and diacerein, propylene glycol, carboxymethyl cellulose and mineral oil. The celecoxib and diacerein were dissolved in propylene glycol (5%) and carboxymethyl cellulose.
It started with determining the antinociceptive effects of the individual compounds to then go on to analyze the effects of the combination, employing the “Pain-induced functional impairment model in the rat” (“PIFIR model”). The animals were anesthetized in a glass desiccator, saturated with ether vapor. The gout was induced by applying an intra-articular injection (i.a.) of 0.05 ml of uric acid suspended in mineral oil at 30% in the right hind member, precisely in the femur-tibia-patella joint.
A 1 mL glass syringe with a 4-mm-long No. 22 needle was used for the intra-articular injection. Immediately afterwards, an electrode is attached to each hind paw (of the rats) in the middle of the plantar calluses. The rats were left to recover from the anesthesia and placed in a 30-cm-diameter rotary stainless-steel cylinder. The cylinder was turned at 4 r.p.m., forcing the rats to walk for 2 min every half hour, for a total of 6.5 hours, (2.5 h to generate the arthritis and 4 h for the assessment of antinociceptive effects. The variable measured was the contact time of each one of the rats' hind legs in the cylinder.
First it was decided to determine the range of doses that could form the celecoxib dose/response curve. […] The 50 mg/kg dose of diacerein has been determined to be a proper dose in the preclinical stage to be employed in combination and be able to determine if changes are produced in the antinociceptive effects.
Thus, the possible antinociceptive effects of both the individual and the combined forms of the compounds were determined and analyzed using animals with gout in the experimental model of Pain-induced functional impairment model in the rat. […]
After the uric acid was administered to the joint to produce the gout type impairment and alteration, there was a wait of 2.5 hours for the total impairment to be produced (the symptoms of gout were already complete at 2.5 hours after the uric acid was administered). This time (2.5 hours after the administration of the uric acid) was considered to be “0” time, for administering the treatment, at this moment, with the individual drugs and the drugs in combined form, followed by the temporary courses of each treatment being determined for the following 4 hours. […]
From the afore-described that corresponds to the experimental model of preclinical analysis of this combination of celecoxib with diacerein whose protection is being sought, the following results were obtained: The data are expressed as a percentage Functionality Index (FI %). […]

A further data set has as its system rats. The data set is described as follows: Assessment of toxic effects (lethality), oral. From the text: In order to determine possible antinociceptive effects and toxic effects, male Wistar rats [Crl:(WI)BR] were employed with a weight of between 180 and 200 g. All the experimental procedures followed the recommendations of the Committee for Research and Ethical Issues of the International Association for the Study of Pain and the Guidelines on Ethical Standards for Investigations of Experiment Pain in Animals. The number of animals for experimentation was kept to a minimum (6 animals per experimental point for antinociceptive effects and 10 animals per experimental point for adverse effects: lethality). The animals were kept in a room with alternating dark/light cycles. Twelve hours before the antinociception experiments, food was withdrawn from the rats, only leaving them free access to water. All the experiments were carried out during the light phase.
In the determinations presented for the individual drugs or drugs in combination, an attempt was made to administer the treatment on a single occasion but, when this was not possible owing to the high concentration and limits of solubility, several administrations were made with 3-hour time intervals. The established doses were always increased in logarithmic units administered orally both for celecoxib and for diacerein.
In the determinations presented below, the treatment was administered on a single occasion and, in the case of celecoxib, high doses in several administrations until the required dose is completed. The established doses were always increased in logarithmic units and administered orally.

The conditions of data set [2]: cited from earlier work.

In the case of `Cc1ccc(-c2cc(C(F)(F)F)nn2-c2ccc(S(N)(=O)=O)cc2)cc1` [celecoxib, 4-[5-(4-methylphenyl)-3-(trifluoromethyl)-1H-pyrazol-1-yl]benzenesulfonamide], the “maximum antinociceptive effectiveness (AUC of temporary courses, DRC)” value in data set [1] (celecoxib by itself, oral, acute administration, doses 3.2 to 1000 mg/kg, 4 h assessment, mean ± standard error, FIG. 2) came to 191.9±27.2 au. For the same compound, the “temporary courses of antinociceptive effect (FI %), dose dependence” value in data set [1] (oral, acute administration, 4 h, celecoxib 3.2 to 1000 mg/kg alone or with diacerein 50 mg/kg) is “dose-dependent antinociceptive effects”. Further, in data set [1] (oral, chronic (7 days) vs acute form), the “antinociceptive effects of chronic treatment compared with acute administration” value is listed as “better antinociceptive effects”. Moreover, the “dose that starts to generate effects of lethality at 24 hours” value in the data set on rats (oral, rats, 24 h post-treatment, FIG. 7) stood at 17.8 g/kg. Besides, in the data set on rats (oral, rats, 48 h post-treatment, FIG. 8), the “dose that starts to generate effects of lethality at 48 hours” value is on record as 10 g/kg. The “dose that starts to generate effects of lethality at 72 hours” value in the data set on rats (oral, rats, 72 h post-treatment, FIG. 9) turned out to be 5.6 g/kg. The “binding to plasma proteins” value in data set [2] (in vivo) was 97%. Also, the “time to maximum plasma concentration” value in data set [2] (oral) is “around 3 hours”.

Take `CC(=O)Oc1cccc2c1C(=O)c1c(OC(C)=O)cc(C(=O)O)cc1C2=O` [diacerein, 4,5-Bis(acetyloxy)-9,10-dihydro-9,10-dioxo-2-anthracenecarboxylic acid]: the “antinociceptive effect (recovery of FI %)” value in data set [1] (50 mg/kg oral doses, 4 h of assessment) is recorded as “did not show any antinociceptive effect whatsoever”. Besides, the “dose that starts to generate effects of lethality at 48 hours” value with rats (male, Wistar [Crl:(WI)BR], rat, in vivo, po, 48 h) was found to be 1.8 g/kg. In addition, in the data set on rats (male, Wistar [Crl:(WI)BR], rat, in vivo, po, 72 h), the “dose that starts to generate effects of lethality at 72 hours” value is reported as 1.0 g/kg. Moreover, the “position of the DRC for the effects of lethality” value in the data set on rats (oral, rats, relative to the DRC of celecoxib by itself) is on record as “more to the left of that of celecoxib”.

Source of the values: patent publication US20210252025A1, “SYNERGIC PHARMACEUTICAL COMBINATION OF A SELECTIVE INHIBITOR OF CYCLOOXYGENASE-2 AND AN ANTHRAQUINONE DERIVATIVE” (priority 2018, published 2021).
